Experimental data reported in article PMC10287670, “A coiled-coil-based design strategy for the thermostabilization of G-protein-coupled receptors” (Scientific Reports, 2023).

Molecular target: T1, β3 adrenergic receptor (β3AR-cc3.1 chimera) (Homo sapiens, UniProt P13945, E36A/M86V/I125V/E126W/Y224A/F341M/Y346L)
T1 construct: gene ADRB3; Ala2 to Leu368 lacking Pro3 to Thr27, with Thermus thermophilus SRS antiparallel coiled coil cc3.1 inserted between Ala231 and Glu286 (replacing ICL3); N-terminal FLAG and C-terminal TwinStrep tags
T1 sequence (P13945 2-368 E36A/M86V/I125V/E126W/Y224A/F341M/Y346L): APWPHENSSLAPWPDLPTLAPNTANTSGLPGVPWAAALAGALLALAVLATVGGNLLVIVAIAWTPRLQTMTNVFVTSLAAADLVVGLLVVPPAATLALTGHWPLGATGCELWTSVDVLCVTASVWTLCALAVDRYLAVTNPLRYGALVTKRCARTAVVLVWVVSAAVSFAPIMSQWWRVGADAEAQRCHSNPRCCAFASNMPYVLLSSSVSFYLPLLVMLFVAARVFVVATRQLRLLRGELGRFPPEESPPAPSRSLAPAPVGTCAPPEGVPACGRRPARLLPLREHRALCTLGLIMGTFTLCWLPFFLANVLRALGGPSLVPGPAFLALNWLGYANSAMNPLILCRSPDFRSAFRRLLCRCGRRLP
Test: radioligand saturation binding (SPA) on membranes of HEK-293S-GnTI- cells expressing β3AR-cc3.[…]

`CCCc1ccccc1OC[C@@H](O)CNC(C)C` [[3H]-dihydroalprenolol] was tested, and the Kd was 150 nM.
